Assay results taken from patent US10266537B2, “3-acetylenyl-pyrazole-pyrimidine derivative, and preparation method therefor and uses thereof” (Si Chuan University, priority 2015, dated 2019).
pIC50: −log10 of the molar value.

Experiments:
[1] = target: Pim-1(h) (Homo sapiens (Human), UniProt P11309); assay: Kinase inhibition assay (KinaseProfiler, 33P-ATP); assay type: biochemical; conditions: compound at 10 μM, read-out: The percentage of the remaining active protein
[2] = target: EGFR (Homo sapiens (Human), UniProt P00533); assay: Kinase inhibition assay (KinaseProfiler, 33P-ATP); assay type: biochemical; conditions: EGFR(h); compound at 10 μM; read-out: The percentage of the remaining active protein
[3] = target: JAK3(h) (Homo sapiens (Human), UniProt P52333); assay: Kinase inhibition assay (KinaseProfiler, 33P-ATP); assay type: biochemical; conditions: compound at 10 μM, read-out: The percentage of the remaining active protein
[4] = target: PI3 Kinase a(h) (Homo sapiens (Human), UniProt P42336); assay: Kinase inhibition assay (KinaseProfiler, 33P-ATP); assay type: biochemical; conditions: PI3 Kinase a(h); compound at 10 μM; read-out: The percentage of the remaining active protein
[5] = target: Tie2 (Homo sapiens (Human), UniProt Q02763); assay: Kinase inhibition assay (KinaseProfiler, 33P-ATP); assay type: biochemical; conditions: Tie2 (h); compound at 10 μM; read-out: The percentage of the remaining active protein
[6] = target: ALK(h) (Homo sapiens (Human), UniProt Q9UM73); assay: Kinase inhibition assay (KinaseProfiler, 33P-ATP); assay type: biochemical; conditions: compound at 10 μM, read-out: The percentage of the remaining active protein
[7] = target: EphB4 (Homo sapiens (Human), UniProt P54760); assay: Kinase inhibition assay (KinaseProfiler, 33P-ATP); assay type: biochemical; conditions: EphB4; ATP at Km
[8] = target: GSK3β(h) (Homo sapiens (Human), UniProt P49841); assay: Kinase inhibition assay (KinaseProfiler, 33P-ATP); assay type: biochemical; conditions: compound at 10 μM, read-out: The percentage of the remaining active protein
[9] = target: FGFR1 (Homo sapiens (Human), UniProt P11362); assay: Kinase inhibition assay (KinaseProfiler, 33P-ATP); assay type: biochemical; conditions: FGFR1(h); compound at 10 μM; read-out: The percentage of the remaining active protein
[10] = system: A375; assay: Cell proliferation inhibition assay (MTT); assay type: cell-based; conditions: Homo sapiens, A-375; A375; MTT, 72 hours; read-out: Proliferation inhibitory activity IC50
Description: (§1) The cells were seeded in 96-well plates with 200 μL of cell suspension per well and incubated overnight in a cell culture medium with a cell concentration of 1 2×10^4 cells/mL. The next day, the supernatant was discarded (the suspension cell was centrifuged before it) and the cells were treated with gradient concentrations of the test compound, respectively. […] After 72 hours, add 20 μL of MTT reagent at a concentration of 5 mg/mL per well. After incubation for 2-4 h, the supernatant was discarded and 150 μL of DMSO was added to each well. […] Relative cell proliferation inhibition rate=([MUT]-[MUT])×100%/[MUT]. The experiment was repeated at least 3 times. Experimental data were expressed as mean, data statistics using t test, P<0.05 for the difference was statistically significant.

[11] = target: RIPK2(h) (Homo sapiens (Human), UniProt O43353); assay: Kinase inhibition assay (KinaseProfiler, 33P-ATP); assay type: biochemical; conditions: compound at 10 μM, read-out: The percentage of the remaining active protein
[12] = target: IKKα (Homo sapiens (Human), UniProt O15111); assay: Kinase inhibition assay (KinaseProfiler, 33P-ATP); assay type: biochemical; conditions: IKKα(h); compound at 10 μM; read-out: The percentage of the remaining active protein
[13] = target: PKA(h) (Homo sapiens (Human), UniProt P17612); assay: Kinase inhibition assay (KinaseProfiler, 33P-ATP); assay type: biochemical; conditions: compound at 10 μM, read-out: The percentage of the remaining active protein
[14] = target: EphA2 (Homo sapiens (Human), UniProt P29317); assay: Kinase inhibition assay (KinaseProfiler, 33P-ATP)
[15] = target: PKCα(h) (Homo sapiens (Human), UniProt P17252); assay: Kinase inhibition assay (KinaseProfiler, 33P-ATP); assay type: biochemical; conditions: compound at 10 μM, read-out: The percentage of the remaining active protein
[16] = system: Miapaca-2; assay: Cell proliferation inhibition assay (MTT); assay type: cell-based; conditions: Homo sapiens, MIA PaCa-2; Miapaca-2; MTT, 72 hours; read-out: Proliferation inhibitory activity IC50
Description: as §1

[17] = target: EphA1(h) (Homo sapiens (Human), UniProt P21709); assay: Kinase inhibition assay (KinaseProfiler, 33P-ATP); assay type: biochemical; conditions: compound at 10 μM, read-out: The percentage of the remaining active protein
[18] = target: PAK1(h) (Homo sapiens (Human), UniProt Q13153); assay: Kinase inhibition assay (KinaseProfiler, 33P-ATP); assay type: biochemical; conditions: compound at 10 μM, read-out: The percentage of the remaining active protein
[19] = target: ARK5(h) (Homo sapiens (Human), UniProt O60285); assay: Kinase inhibition assay (KinaseProfiler, 33P-ATP); assay type: biochemical; conditions: compound at 10 μM, read-out: The percentage of the remaining active protein
[20] = target: Tec(h) activated (Homo sapiens (Human), UniProt P42680); assay: Kinase inhibition assay (KinaseProfiler, 33P-ATP); assay type: biochemical; conditions: compound at 10 μM, read-out: The percentage of the remaining active protein
[21] = target: mTOR(h) (Homo sapiens (Human), UniProt P42345); assay: Kinase inhibition assay (KinaseProfiler, 33P-ATP); assay type: biochemical; conditions: compound at 10 μM, read-out: The percentage of the remaining active protein
[22] = target: Itk(h) (Homo sapiens (Human), UniProt Q08881); assay: Kinase inhibition assay (KinaseProfiler, 33P-ATP); assay type: biochemical; conditions: compound at 10 μM, read-out: The percentage of the remaining active protein
[23] = system: CFPAC; assay: Cell proliferation inhibition assay (MTT); assay type: cell-based; conditions: Homo sapiens; CFPAC; MTT, 72 hours; read-out: Proliferation inhibitory activity IC50
Description: as §1

[24] = target: c-Src(T341M) (Homo sapiens (Human), UniProt P12931, T341M); assay: Kinase inhibition assay (KinaseProfiler, 33P-ATP); assay type: biochemical; conditions: c-Src(T341M); ATP at Km
[25] = target: DDR1 (Homo sapiens (Human), UniProt Q08345); assay: Kinase inhibition assay (KinaseProfiler, 33P-ATP); assay type: biochemical; conditions: DDR1; ATP at Km
[26] = target: Fyn (Homo sapiens (Human), UniProt P06241); assay: Kinase inhibition assay (KinaseProfiler, 33P-ATP); assay type: biochemical
[27] = target: Fms(h) (Homo sapiens (Human), UniProt P07333); assay: Kinase inhibition assay (KinaseProfiler, 33P-ATP); assay type: biochemical; conditions: compound at 10 μM, read-out: The percentage of the remaining active protein
[28] = target: KDR (Homo sapiens (Human), UniProt P35968); assay: Kinase inhibition assay (KinaseProfiler, 33P-ATP); assay type: biochemical
[29] = target: EphA8(h) (Homo sapiens (Human), UniProt P29322); assay: Kinase inhibition assay (KinaseProfiler, 33P-ATP); assay type: biochemical; conditions: compound at 10 μM, read-out: The percentage of the remaining active protein
[30] = target: Blk (Homo sapiens (Human), UniProt P51451); assay: Kinase inhibition assay (KinaseProfiler, 33P-ATP); assay type: biochemical
Sequence of Blk (P51451 whole entry): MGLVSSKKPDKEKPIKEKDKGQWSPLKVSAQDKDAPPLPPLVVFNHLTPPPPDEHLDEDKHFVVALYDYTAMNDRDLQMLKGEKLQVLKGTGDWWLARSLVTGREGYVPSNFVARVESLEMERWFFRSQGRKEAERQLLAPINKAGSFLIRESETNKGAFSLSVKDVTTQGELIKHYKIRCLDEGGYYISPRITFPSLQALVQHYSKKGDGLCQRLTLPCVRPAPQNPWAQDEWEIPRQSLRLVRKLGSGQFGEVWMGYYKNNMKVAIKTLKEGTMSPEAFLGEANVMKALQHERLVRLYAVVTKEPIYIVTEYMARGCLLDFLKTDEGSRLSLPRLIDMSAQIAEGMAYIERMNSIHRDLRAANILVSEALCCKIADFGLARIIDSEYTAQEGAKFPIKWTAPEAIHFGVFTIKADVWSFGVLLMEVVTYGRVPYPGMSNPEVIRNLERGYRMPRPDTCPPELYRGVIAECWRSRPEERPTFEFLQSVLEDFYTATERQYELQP

Sequence of Fyn (P06241 whole entry): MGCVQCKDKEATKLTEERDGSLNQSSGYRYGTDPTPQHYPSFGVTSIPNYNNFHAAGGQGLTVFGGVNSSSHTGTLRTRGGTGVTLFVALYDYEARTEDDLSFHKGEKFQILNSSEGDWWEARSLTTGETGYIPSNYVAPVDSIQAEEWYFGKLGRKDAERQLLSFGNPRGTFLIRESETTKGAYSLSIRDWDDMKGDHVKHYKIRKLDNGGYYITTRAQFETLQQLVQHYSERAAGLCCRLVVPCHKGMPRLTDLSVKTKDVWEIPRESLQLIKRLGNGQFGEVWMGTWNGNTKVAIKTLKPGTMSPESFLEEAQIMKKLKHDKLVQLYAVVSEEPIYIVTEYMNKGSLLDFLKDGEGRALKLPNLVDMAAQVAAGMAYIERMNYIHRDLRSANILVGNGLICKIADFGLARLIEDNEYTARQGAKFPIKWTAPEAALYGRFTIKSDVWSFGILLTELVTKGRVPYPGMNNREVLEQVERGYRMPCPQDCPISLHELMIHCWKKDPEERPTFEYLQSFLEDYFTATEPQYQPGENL
Sequence of KDR (P35968 20-1356): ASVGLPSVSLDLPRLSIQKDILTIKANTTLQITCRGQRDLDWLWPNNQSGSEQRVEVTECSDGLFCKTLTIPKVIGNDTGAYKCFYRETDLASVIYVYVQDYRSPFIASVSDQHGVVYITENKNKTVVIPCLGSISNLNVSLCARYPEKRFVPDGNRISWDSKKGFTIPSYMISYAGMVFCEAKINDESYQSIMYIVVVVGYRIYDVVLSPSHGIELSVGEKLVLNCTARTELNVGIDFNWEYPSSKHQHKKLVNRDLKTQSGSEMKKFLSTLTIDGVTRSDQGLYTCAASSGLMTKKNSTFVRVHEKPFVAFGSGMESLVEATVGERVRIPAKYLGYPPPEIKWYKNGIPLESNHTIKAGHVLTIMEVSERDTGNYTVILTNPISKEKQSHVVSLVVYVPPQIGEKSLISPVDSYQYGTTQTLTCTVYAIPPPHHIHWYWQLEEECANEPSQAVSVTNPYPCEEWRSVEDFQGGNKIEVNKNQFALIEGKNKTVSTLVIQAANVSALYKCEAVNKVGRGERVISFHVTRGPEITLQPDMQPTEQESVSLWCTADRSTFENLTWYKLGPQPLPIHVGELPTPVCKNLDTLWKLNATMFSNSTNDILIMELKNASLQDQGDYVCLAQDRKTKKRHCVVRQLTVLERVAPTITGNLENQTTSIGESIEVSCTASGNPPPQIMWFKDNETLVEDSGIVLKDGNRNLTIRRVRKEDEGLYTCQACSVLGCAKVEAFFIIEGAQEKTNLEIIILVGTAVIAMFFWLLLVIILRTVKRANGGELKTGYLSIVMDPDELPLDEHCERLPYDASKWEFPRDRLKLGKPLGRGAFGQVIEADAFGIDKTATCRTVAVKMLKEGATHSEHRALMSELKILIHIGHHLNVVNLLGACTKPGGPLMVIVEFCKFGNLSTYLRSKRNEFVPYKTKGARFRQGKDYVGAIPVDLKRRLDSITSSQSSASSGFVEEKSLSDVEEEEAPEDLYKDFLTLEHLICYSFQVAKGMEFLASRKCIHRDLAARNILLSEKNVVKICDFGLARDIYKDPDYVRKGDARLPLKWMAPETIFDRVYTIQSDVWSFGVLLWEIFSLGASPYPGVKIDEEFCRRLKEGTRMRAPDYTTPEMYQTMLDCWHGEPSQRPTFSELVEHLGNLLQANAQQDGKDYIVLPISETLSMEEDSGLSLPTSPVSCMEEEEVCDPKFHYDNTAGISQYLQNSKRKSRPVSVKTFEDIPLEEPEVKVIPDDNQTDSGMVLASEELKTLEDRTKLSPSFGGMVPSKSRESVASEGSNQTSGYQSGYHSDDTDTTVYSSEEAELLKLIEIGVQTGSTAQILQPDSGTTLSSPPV
Sequence of EphB4 (P54760 16-987): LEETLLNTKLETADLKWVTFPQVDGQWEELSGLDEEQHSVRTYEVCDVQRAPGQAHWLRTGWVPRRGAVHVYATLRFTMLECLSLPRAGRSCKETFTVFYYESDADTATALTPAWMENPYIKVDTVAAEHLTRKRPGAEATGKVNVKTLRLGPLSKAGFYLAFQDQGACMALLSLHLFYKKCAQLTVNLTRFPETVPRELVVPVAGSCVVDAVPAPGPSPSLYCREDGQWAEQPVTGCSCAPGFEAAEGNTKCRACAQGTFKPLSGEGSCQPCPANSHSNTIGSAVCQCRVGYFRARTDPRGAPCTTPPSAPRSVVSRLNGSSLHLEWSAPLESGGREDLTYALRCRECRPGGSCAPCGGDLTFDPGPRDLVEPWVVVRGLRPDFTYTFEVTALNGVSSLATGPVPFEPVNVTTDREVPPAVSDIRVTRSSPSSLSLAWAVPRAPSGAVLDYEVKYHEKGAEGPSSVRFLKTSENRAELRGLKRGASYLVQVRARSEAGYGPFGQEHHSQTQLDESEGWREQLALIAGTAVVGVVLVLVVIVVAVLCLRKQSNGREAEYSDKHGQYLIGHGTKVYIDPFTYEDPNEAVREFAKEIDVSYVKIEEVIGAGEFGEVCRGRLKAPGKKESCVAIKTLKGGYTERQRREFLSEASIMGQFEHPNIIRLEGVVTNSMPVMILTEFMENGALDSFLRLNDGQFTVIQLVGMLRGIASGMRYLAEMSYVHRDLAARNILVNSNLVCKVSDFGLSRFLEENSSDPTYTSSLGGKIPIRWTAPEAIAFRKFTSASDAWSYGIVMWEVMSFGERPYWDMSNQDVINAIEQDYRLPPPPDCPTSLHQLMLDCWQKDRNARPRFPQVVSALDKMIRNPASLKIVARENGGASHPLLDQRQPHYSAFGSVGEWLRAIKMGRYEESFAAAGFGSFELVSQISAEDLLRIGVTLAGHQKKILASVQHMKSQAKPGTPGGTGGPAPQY
Sequence of RIPK2(h) (O43353 whole entry): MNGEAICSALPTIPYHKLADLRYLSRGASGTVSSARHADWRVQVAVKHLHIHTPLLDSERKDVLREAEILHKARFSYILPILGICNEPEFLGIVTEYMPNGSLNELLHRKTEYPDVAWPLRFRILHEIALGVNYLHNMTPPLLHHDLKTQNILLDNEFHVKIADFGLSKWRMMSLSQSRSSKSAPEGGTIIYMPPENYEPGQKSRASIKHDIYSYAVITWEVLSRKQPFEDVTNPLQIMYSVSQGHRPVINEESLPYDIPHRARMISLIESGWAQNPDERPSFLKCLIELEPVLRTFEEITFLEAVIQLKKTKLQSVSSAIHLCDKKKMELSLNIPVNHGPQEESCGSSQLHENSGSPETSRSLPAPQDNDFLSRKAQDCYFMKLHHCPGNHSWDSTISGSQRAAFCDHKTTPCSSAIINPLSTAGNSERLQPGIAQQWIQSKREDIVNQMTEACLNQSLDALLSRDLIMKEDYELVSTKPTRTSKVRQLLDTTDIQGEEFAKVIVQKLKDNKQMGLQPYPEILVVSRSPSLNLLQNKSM
Sequence of Itk(h) (Q08881 whole entry): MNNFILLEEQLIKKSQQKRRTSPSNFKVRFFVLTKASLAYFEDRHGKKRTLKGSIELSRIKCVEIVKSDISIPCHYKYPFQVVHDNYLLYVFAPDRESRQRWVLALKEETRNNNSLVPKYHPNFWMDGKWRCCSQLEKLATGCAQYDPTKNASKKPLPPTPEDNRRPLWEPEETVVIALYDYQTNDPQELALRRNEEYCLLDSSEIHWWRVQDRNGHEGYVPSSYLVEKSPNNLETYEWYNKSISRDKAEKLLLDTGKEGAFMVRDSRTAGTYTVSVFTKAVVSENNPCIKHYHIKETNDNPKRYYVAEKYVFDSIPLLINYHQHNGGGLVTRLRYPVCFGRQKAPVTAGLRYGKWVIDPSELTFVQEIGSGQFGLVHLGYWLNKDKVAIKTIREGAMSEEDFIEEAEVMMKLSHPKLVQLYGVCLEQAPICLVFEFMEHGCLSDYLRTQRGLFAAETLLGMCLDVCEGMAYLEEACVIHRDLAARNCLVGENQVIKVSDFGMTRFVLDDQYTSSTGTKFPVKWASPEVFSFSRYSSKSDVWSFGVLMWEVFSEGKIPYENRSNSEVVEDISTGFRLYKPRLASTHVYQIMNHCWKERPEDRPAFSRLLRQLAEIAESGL
Sequence of GSK3β(h) (P49841 whole entry): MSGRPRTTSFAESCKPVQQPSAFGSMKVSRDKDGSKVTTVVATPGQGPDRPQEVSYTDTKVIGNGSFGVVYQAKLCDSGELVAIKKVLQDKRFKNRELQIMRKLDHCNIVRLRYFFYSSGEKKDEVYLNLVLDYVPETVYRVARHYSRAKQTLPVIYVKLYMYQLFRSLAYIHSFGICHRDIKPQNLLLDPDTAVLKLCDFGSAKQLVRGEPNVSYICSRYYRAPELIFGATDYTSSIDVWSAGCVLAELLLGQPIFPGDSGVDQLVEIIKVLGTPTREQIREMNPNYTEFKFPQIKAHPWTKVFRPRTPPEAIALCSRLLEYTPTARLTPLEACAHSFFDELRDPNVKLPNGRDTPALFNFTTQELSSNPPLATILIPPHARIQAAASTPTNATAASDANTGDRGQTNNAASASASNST

`Cc1ccc(NC(=O)c2cccc(C(F)(F)F)c2)cc1C#Cc1nn(C2CCN(C)CC2)c2ncnc(N)c12` [Compound 31] showed a remaining activity at 10 µM [1] of 34%, a remaining activity at 10 µM [2] of 15% and a remaining activity at 10 µM [3] of 29%. The remaining activity at 10 µM [4] was 98%, the remaining activity at 10 µM [5] was 3% and the remaining activity at 10 µM [6] was 33%. For the same compound, the pIC50 [7] was 7.96, the remaining activity at 10 µM [8] was 99% and the remaining activity at 10 µM [9] was 0%. It also gave a pIC50 [10] of 7.58, a remaining activity at 10 µM [11] of 15% and a remaining activity at 10 µM [12] of 14%. It also gave a remaining activity at 10 µM [13] of 58%, a pIC50 [14] of 7.74 and a remaining activity at 10 µM [15] of 92%. For the same compound, the pIC50 [16] was 7.39, the remaining activity at 10 µM [17] was 1% and the remaining activity at 10 µM [18] was 36%. The remaining activity at 10 µM [19] was 115%, the remaining activity at 10 µM [20] was 13% and the remaining activity at 10 µM [21] was 81%. It also gave a remaining activity at 10 µM [22] of 92%, a pIC50 [23] of 6.33 and a pIC50 [24] of 5.43. For the same compound, the pIC50 [25] was 8.40, the remaining activity at 10 µM ([26]; Fyn(h), compound at 10 μM, read-out: The percentage of the remaining active protein) was -1% and the pIC50 ([26]; Fyn, ATP at Km) was 8.52. The remaining activity at 10 µM [27] was 1%, the remaining activity at 10 µM ([28]; KDR(h), compound at 10 μM, read-out: The percentage of the remaining active protein) was 3% and the pIC50 ([28]; KDR, ATP at Km) was 7.92. For the same compound, the remaining activity at 10 µM [29] was -4%, the remaining activity at 10 µM ([30]; Blk(h), compound at 10 μM, read-out: The percentage of the remaining active protein) was -1% and the pIC50 ([30]; Blk, ATP at Km) was 7.92.
